{
  "source": "patent US5212163A",
  "about": "“Compounds” (Beecham Group p.l.c., priority 1989, dated 1993)",
  "molecular_target": "rabbit bone collagenase (Oryctolagus cuniculus, UniProt P13943)",
  "sequence (P13943 99-468)": "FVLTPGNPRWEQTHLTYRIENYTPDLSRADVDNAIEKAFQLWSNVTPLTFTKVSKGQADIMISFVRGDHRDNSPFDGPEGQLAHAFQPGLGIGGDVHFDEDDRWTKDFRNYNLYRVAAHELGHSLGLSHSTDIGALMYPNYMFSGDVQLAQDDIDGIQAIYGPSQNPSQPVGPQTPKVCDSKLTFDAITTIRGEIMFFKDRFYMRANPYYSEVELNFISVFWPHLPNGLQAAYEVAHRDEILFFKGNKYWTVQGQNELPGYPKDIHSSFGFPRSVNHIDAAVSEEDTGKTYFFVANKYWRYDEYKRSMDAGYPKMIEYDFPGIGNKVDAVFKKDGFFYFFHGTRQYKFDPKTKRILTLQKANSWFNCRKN",
  "assay": "biochemical",
  "protocol": "The test is performed essentially as in Cawston and Barrett Anal. Biochem. 99, 340-345 (1979). Compounds for testing are dissolved in methanol and added to purified rabbit bone collagenase or human collagenase purified from culture supernatants from the human lung fibroblast cell line, WI-38, diluted in a suitable aqueous buffer. After a 5 min pre-incubation at 37° C., the assay tubes are cooled to 4° C. and ^14 C-acetylated rat skin Type I collagen is added. The assay tubes are incubated at 37° C. overnight. The ^14 C-collagen forms insoluble fibrils which are the substrate for the enzyme.\nTo terminate the assay, the assay tubes are spun at 12000 rpm for 25 min. Undigested ^14 C-collagen remains as insoluble fibrils and is pelleted, while digested ^14 C-collagen remains as soluble peptides in the supernatant. A sample of the supernatant is taken for liquid scintillation counting.",
  "data": [
    {"smiles": "COC(=O)[C@H](C)NC(=O)[C@H](Cc1c[nH]c2ccccc12)NC(=O)[C@H](CC(C)C)NC(C)P(=O)(O)O", "note": "(stereo partly drawn) [Example E1, N-[N-[N-(1-Phosphonoethyl)-leucyl]-(S)-tryptophyl]-(S)-alanine, methyl ester]", "values": [
      {"measurement": "IC50", "result": 2400, "unit": "nM"}
    ]},
    {"smiles": "COC(=O)[C@H](C)NC(=O)[C@H](Cc1ccc(OC)cc1)NC(=O)[C@H](CC(C)C)NC(C)P(=O)(O)O", "note": "(stereo partly drawn) [Example E2, N-[N-[N-(1-Phosphonoethyl)-leucyl]-O-methyl-(S)-tyrosyl]-(S)-alanine, methyl ester]", "values": [
      {"measurement": "IC50", "result": 3100, "unit": "nM"}
    ]}
  ]
}
